# Assay results taken from patent US20250019371A1, “SMALL-MOLECULAR INHIBITORS FOR THE BETA-CATENIN/ B-CELL LYMPHOMA 9 PROTEIN-PROTEIN INTERACTION” (H. LEE MOFFITT CANCER CENTER AND RESEARCH INSTITUTE, INC., priority 2021, published 2025).
# Experiments:
# [1] = tested on: FOPFlash luciferase reporter (mutated Tcf4 binding sites); test: FOPFlash luciferase reporter assay in SW480 cells; assay type: cell-based; details: same concentration range as TOPFlash
# Method: (§1) The suppressing effect of the inhibitors on transactivation of Wnt/β-catenin signaling was evaluated by the TOPFlash/FOPFlash luciferase reporter assay. In the TOPFlash assay, the luciferase reporter has three wild-type Tcf4 binding sites, while in the FOPFlash assay Tcf4 binding sites were mutated. These tandem Tcf binding sites controls the expression ratio of the firefly luciferase in TOPFlash/FOPFlash assays. The renilla luciferase reporter construct (pCMV-RL) was used as the internal control to normalize luciferase reporter signals and eliminate any possible systematic errors. […] This selectivity trend is consistent with that from MTS cell viability assays. Therefore, further cell-based studies were focused on compound 30.
# (§2) Cell Transfection and Luciferase Assay. FuGENE6 (E269A, Promega) 96 well plate format was used for the transfection of SW480 cells according to the manufacturer's instruction. SW480 cells were co-transfected with 60 ng the TOPFlash or FOPFlash firefly luciferase reporter gene and 40 ng renilla luciferase pCMV-RL normalization reporter gene. Cells were cultured in DMEM and 10% FBS at 37° C. for 24 h, and different concentrations of inhibitors or DMSO was added. After 24 h, the luciferase reporter activity was measured using the Dual-Glo system (E2940, Promega). […]
# β-catenin/E-cadherin PPI = test: Co-immunoprecipitation in HCT116 cells, β-catenin/E-cadherin; assay type: cell-based; details: concentrations sufficient to disrupt β-catenin/BCL9
# Method: C0-Immunoprecipitation (C0-IP) Experiments. HCT116 cancer cells with hyperactive 8-catenin signaling at 1×10^6 cells/mL were treated with different concentrations of the inhibitor for 24 h. Cells were then lysed in buffer containing 50 mM Tris, pH 7.4, 150 mM NaCl, 1% Nonidet P-40, 2 mM EDTA, and protease inhibitors. The cell lysates were pre-adsorbed to A/G plus agarose (sc-2003, Santa Cruz Biotechnology) at 4° C. for 1 h. Pre-adsorbed lysates were incubated with a specific primary antibody against β-catenin (610153, BD Biosciences) overnight at 4° C. A/G plus agarose was then added to the lysate mixture and incubated for 3 h. The beads were washed four times with the lysis buffer at 4° C. The bound protein was eluted by boiling in the SDS sample buffer and loaded onto 8% SDS polyacrylamide gel for electrophoretic analysis. Separated proteins were transferred onto nitrocellulose membranes for immunoblot analysis. The antibodies against BCL9 (ab37305, Abcam) and E-cadherin (610404, BD Biosciences), were incubated with the membranes, respectively. IRDye 680LT goat anti mouse IgG (827-11080, LiCOR) and IRDye 800CW goat anti rabbit IgG (926-32211, LiCOR) were used as the secondary antibodies. The images were detected by the Odyssey Infrared Imaging System (LiCOR). Experiments were performed in triplicate.
# [2] = tested on: Axin2, cyclin D1 and LEF1 mRNA; test: qPCR of Wnt target genes in Wnt 3a-activated MDA-MB-231 cells; assay type: cell-based, human; details: 24 h, HPRT spared
# Method: (§3) Quantitative Real Time PCR analysis. SW480 cells at 1×10^6 cells/mL were treated with inhibitors at different concentrations for 24 h. MDA-MB-231 cells at 1×10^6 cells/mL were treated with 100 ng/mL recombinant Wnt 3a (rmW3aL-010, Time BioScience) for 30 min, then the inhibitors at different concentration were added and incubated for 24 h. Total RNAs were extracted with TRIzol (15596026, Life Technologies), and the cDNA was synthesized with the superscript III first-strand kit (18080-051, Invitrogen). qPCR experiments were performed using the iQTM SYBR green supermix kit (170-8880, BIO-RAD) on an CFX96 Real Time System (BIO-RAD). The threshold cycle (CT) values were normalized to that of internal reference GAPDH. Experiments were performed in triplicate. The primer pairs are shown below
# MDA-MB-468 = test: MTS cell viability assay, MDA-MB-468; assay type: cell-based; details: Homo sapiens, 72 h, Wnt/β-catenin hyperactive, mean ± SD (n = 3)
# Method: (§4) MTS Cell Growth Inhibition Experiments. Colorectal cancer cells (SW480 and HCT116) and triple negative breast cancer cells (MDA-MB-231 and MDA-MB-468) were seeded in 96-well plates at 5×10^3 cells/well in DMEM with 10% FCS, maintained overnight at 37° C., and incubated with the tested compounds at various concentrations. Human mammary epithelial cell MCF10A were seeded in 96-well plates at 1×10^4 cells/well in MEGM (CC-3150, Lonza) with 100 ng/mL cholera toxin, maintained overnight at 37° C., and incubated with the tested compounds at various concentrations. Cell viability was monitored after 72 h using a freshly prepared mixture of 1 part phenazine methosulfate (PMS, Sigma) solution (0.92 mg/mL) and 19 parts 3-(4,5-dimethylthiazol-2-yl)-5-(3-carboxymethoxyphenyl)-2-(4-sulfophenyl)-2H-tetrazolium (MTS, Promega) solution (2 mg/mL). Cells were incubated in 10 μL of this solution at 37° C. for 3 h, and A490 was measured. […] Experiments were performed in triplicate.
# MDA-MB-231 = test: MTS cell viability assay, MDA-MB-231; assay type: cell-based; details: Homo sapiens, 72 h, Wnt/β-catenin hyperactive, mean ± SD (n = 3)
# Method: as §4
# HCT116 = test: MTS cell viability assay, HCT116; assay type: cell-based; details: Homo sapiens, HCT-116; 72 h, Wnt/β-catenin hyperactive, mean ± SD (n = 3)
# Method: as §4
# [3] = tested on: Wnt/β-catenin hyperactive cancer cells; test: MTS cell viability assays, cell panel; assay type: cell-based; details: SW480, HCT116, MDA-MB-231, MDA-MB-468; read-out: IC50s for viability of Wnt/β-catenin hyperactive cancer cells
# Method: as §4
# [4] = tested on: Axin2, cyclin D1 and LEF1 mRNA; test: qPCR of Wnt target genes in SW480 cells; assay type: cell-based, human; details: 24 h, HPRT spared
# Method: as §3
# [5] = tested on: Wnt/β-catenin signaling (TOPFlash luciferase reporter); test: TOPFlash luciferase reporter assay in SW480 cells; assay type: cell-based; details: Homo sapiens, 24 h
# Method: as §1, §2
# SW480 = test: MTS cell viability assay, SW480; assay type: cell-based; details: Homo sapiens, 72 h, Wnt/β-catenin hyperactive, mean ± SD (n = 3)
# Method: as §4
# MCF10A = test: MTS cell viability assay, MCF10A; assay type: cell-based, human; details: Homo sapiens, MCF-10A; 72 h, Wnt/β-catenin normal, mean ± SD (n = 3)
# Method: as §4
structure (smiles),measurement,setting,value
"CC(C)(Oc1cccc(N2CCC[C@H](C(=O)N(Cc3ccc(-c4cccs4)cc3)C3CC3)C2)c1)C(=O)NS(=O)(=O)c1ccc(C#N)cc1 [Compound 30, (S)-((4-Cyanophenyl)sulfonyl) (2-(3-(3-(cyclopropyl(4-(thiophen-2-yl)benzyl)carbamoyl)piperidin-1-yl)phenoxy)-2-methylpropanoyl)amide]",effect on FOPFlash luciferase reporter activity,[1],did not show any inhibitory effect
same,effect on β-catenin/E-cadherin PPI in cells (co-IP),β-catenin/E-cadherin PPI,did not affect the β-catenin/E-cadherin PPI
same,"transcription of Wnt target genes Axin2, cyclin D1, LEF1 (qPCR)",[2],dose-dependently inhibited transcription of these Wnt target genes
same,IC50,MDA-MB-468,17.8 ± 1.01 µM
same,IC50,MDA-MB-231,14.3 ± 0.57 µM
same,IC50,HCT116,29.6 ± 1.02 µM
same,IC50,[3],14 to 30 µM
same,"transcription of Wnt target genes Axin2, cyclin D1, LEF1 (qPCR)",[4],dose-dependently inhibited transcription of these Wnt target genes
same,IC50,[5],6.6 µM
same,IC50,SW480,16.3 ± 2.04 µM
same,IC50,MCF10A,139 ± 3.16 µM
